From patent publication US20100048604A1, “Ligands for Aldoketoreductases” (priority 2004, published 2010) come the findings set out here.

In data set [1] the target is T1, AKR1C3 (Homo sapiens, UniProt P42330).
T1 construct: gift of Professor Trevor Penning (University of Pennsylvania School of Medicine)
T1 sequence (P42330 1-323): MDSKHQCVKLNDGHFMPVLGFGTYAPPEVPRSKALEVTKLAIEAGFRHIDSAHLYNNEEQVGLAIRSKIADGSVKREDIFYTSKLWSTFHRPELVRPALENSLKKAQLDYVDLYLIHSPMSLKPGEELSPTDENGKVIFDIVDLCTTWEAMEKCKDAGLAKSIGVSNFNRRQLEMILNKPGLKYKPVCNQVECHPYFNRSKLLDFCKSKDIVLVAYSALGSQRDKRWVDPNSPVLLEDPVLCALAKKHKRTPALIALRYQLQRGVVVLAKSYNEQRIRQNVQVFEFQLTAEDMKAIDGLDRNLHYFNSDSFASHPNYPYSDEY
The data set can be described thus: Steady state kinetic parameters of fluorogenic substrates with purified AKR1C isozymes. The class given is biochemical. On the procedure: The initial reaction rates were used to derive standard kinetic parameters (kcat and Km, Materials and Methods).
Substrate tolerance of AKR1Cs: Isozyme Activity with 5a-5i: Activity of the second generation of fluorogenic substrates with the AKR1C isozymes was determined as follows. […] After mixing the aqueous components thoroughly, 20 μL of acetonitrile was added as a cosolvent and mixed well. […] 4 μL of undiluted AKR1C (provided generously by the Penning lab at concentrations of 2.5 mg/mL) were then added to the cuvette for a total of 10 μg purified enzyme in the 1 mL assay volume. Fluorescence arising from the respective alcohol reduction product was then monitored over the course of 5-10 minutes.
Binding constant and catalytic rates (Km and kcat) of the second generation of fluorogenic substrates was determined as follows. […] After mixing the aqueous components thoroughly, 20 μL of acetonitrile was added as a cosolvent and mixed well. […] To initiate the reduction, 2 or 4 μL of diluted AKR1C (1:2 to 1:100, depending on the kinetics of a particular isozyme's reduction of a substrate) was then added to the cuvette. Fluorescence arising from the respective alcohol reduction product was then monitored over the course of 3 minutes (Excitation and emission band pass slits both at 4 nm, lamp 700 V, λexc 410 nm, λem 510).
initial rate=[nst×(Ft−F0)/(Fst)]/t (1)
where Ft and F0 represent the fluorescence at times t and 0 minutes, nst is the nanomoles of product in a known concentration of product, and Fst is the fluorescence resulting from nst of product. […] Reported enzymatic kinetic parameters are the average of three independent determinations from three different preparations of substrate and enzyme.

Data set [2] has as its system HepG2 cell fractions. The data set is described as follows: Metabolism of phenyl ketone 5c in HepG2 cell fractions. The class given is in vitro ADME, human. The settings on record: 10 μM 5c. The method, then: FIG. 17. Reactivity of HepG2 cell fractions with 5c. Assays were performed in 50 mM Tris-HCl buffer containing 1 mM NADPH, 10 μM 5c and 80 μg protein/mL, incubated for 60 minutes. Legend: (+) without flufenamic acid; (−) with 100 μM flufenamic acid; HepG2=hepatoma cell line.
Selectivity of Phenyl Ketone Probe 5c in Cellular Lysates: The selectivity of phenyl ketone probe 5c in human hepatoma cells (HepG2), which are known to express all four AKR1C isozymes in the cytoplasm, was tested. […] An issue may be non-selective reduction of probes with microsomes, which are organelles enriched with redox enzymes. Following one hour incubation of probe 5c with both cytosolic and microsomal fractions prepared from HepG2 cells, the resulting mixtures were analyzed fluorimetrically. […] Moreover, reduction by the cytoplasmic extract was suppressed by flufenamic acid, a known inhibitor of the AKR1C isozymes (Penning, T. M.; Talalay, P. Proc Natl Acad Sci USA 1983, 4504-4508).
HepG2 cells were obtained from and grown in the Penning laboratory (University of Pennsylvania School of Medicine). Cells were maintained at 37° C. and 5% CO2 containing Eagle's minimal essential medium supplemented with 100 U/mL penicillin, 100 μg/mL streptomycin, 2 mM L-glutamine, and 10 % heat-inactivated fetal bovine serum.
To measure metabolism of 5c in HepG2 cell fractions, the cells were harvested and fractionized as follows. HepG2 cells were grown to confluency on eight 15×100 mm dishes, whereupon 500 μL of ice cold Tris-HCl-sucrose buffer (50 mM Tris-HCl at pH 7.4, 250 mM sucrose, 1 mM EDTA, and 1 mM 2-mercaptoethanol) was added to each dish. Cells were scratched off and taken up directly into an ice cold potter. These cells were then homogenized and sonicated (10 one-second 10 W bursts, four times on ice). […]
Protein concentrations for whole or fractionized HepG2 cells were determined by standard Bradford assays (Bradford, M. M.; Anal. Biochem. 1976, 72, 248). […] Reactions were initiated with 80 μg of protein per 1 mL assay and monitored fluorimetrically for up to 2 hours. […]

The nature of data set [3]: Solubility in DMSO, methanol and acetonitrile. The format is physicochemical. The settings on record: methanol, acetonitrile, organic solvent or mixture, read-out: solubility class (asterisk) in DMSO, methanol, and acetonitrile.
The target in data set [4] is T2, rat 3α-hydroxysteroid dehydrogenase (Rattus norvegicus, UniProt P23457).
T2 construct: gift of Professor Trevor Penning (University of Pennsylvania School of Medicine)
T2 sequence (P23457 1-322): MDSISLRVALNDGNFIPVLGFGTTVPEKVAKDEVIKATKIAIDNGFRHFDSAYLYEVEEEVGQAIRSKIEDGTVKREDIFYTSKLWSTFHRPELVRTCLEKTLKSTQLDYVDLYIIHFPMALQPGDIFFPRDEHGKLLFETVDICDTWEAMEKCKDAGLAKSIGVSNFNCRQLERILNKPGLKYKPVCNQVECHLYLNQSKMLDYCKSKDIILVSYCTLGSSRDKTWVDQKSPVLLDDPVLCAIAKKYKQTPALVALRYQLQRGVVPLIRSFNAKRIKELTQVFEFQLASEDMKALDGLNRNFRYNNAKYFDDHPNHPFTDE
The data set is described as follows: Enzymatic screening of probes 1-7 against a panel of oxidoreductases. The format is biochemical. The settings on record: 12 hour incubation, 30-50 μM substrate, pH 7, 250 μM NAD(P)H. The method, then:
(§1) FIG. 4. Screening of probes 1-7 against a panel of oxidoreductases Percentage fluorescence increase after 12 hour incubation of 30-50 μM substrate, 100 mM phosphate buffer (pH 7), 250 μM NAD(P)H, and 100 nM enzyme. Substrates 1, 2, 3, and 4 monitored at λexc=340 nm, λem=440 nm. Substrates 5, 6, and 7 monitored at λexc=440 nm, λem=510 nm. 3HSD, 3α-hydroxysteroid dehydrogenase (PT, Pseudomonas testosteroni), HLAD, horse liver alcohol dehydrogenase, TBAD, Thermoanaerobium brockii alcohol dehydrogenase, BS 12HSD, Bacillus sp. 12α-hydroxysteroid dehydrogenase, ABAD, amyloid-β binding alcohol dehydrogenase (human), GDH, glycerol dehydrogenase, YADH, yeast alcohol dehydrogenase, LDH, lactate dehydrogenase.
(§2) Probes 1-7 (see FIG. 3) were subsequently tested against a collection of dehydrogenases in the presence of NAD(P)H; the extent of reduction was assessed by the measurement of fluorescence intensity at the emission maximum of each probe (FIG. 4). This assay included enzymes from two major oxidoreductase superfamilies, the short chain alcohol dehydrogenases (SDR) and the aldo-keto reductases (AKR), ranging from bacterial to mammalian and human enzymes.
(§3) Horse Liver alcohol dehydrogenase (Lot Number 51K7520), Thermoanaerobium brockii NADP^+ dependent alcohol dehydrogenase (Lot Number 033K4093), Pseudomonas testosteroni 3α-hydroxysteroid dehydrogenase (Lot Number 053K8624), and Bacillus sphaericus 12α-hydroxysteroid dehydrogenase (Lot Number 70K16621) were purchased from Sigma (St. Louis, Mo.). Yeast alcohol dehydrogenase (Lot Number 93122920), glycerol dehydrogenase (Lot Number 92110122), (D)-lactate dehydrogenase (Lot Number 92419236), (L)-lactate dehydrogenase (Lot Number 92801821), NAD^+, NADP^+, NADH, and NADPH were purchased from Roche. Enzyme activity was confirmed by compliance to supplier's quality control assays prior to usage. Rat and human 3α-hydroxysteroid dehydrogenases were provided by Professor Trevor Penning (University of Pennsylvania School of Medicine) and human amyloid-β peptide binding alcohol dehydrogenase was supplied by Professor Shi Du Yan (Columbia University School for Physicians and Surgeons).
(§4) Enzymatic assays were performed in triplicate on selected fluorogenic substrates according to the following protocol. To each well of a FALCON 96-well black flat bottom plate was added (1) 40 μL of 500 mM potassium phosphate buffer pH 7.0, (2) 113 μL of double deionized water, (3) 25 μL of 2 mM NADH (except for Pseudomonas testosteroni 3α-hydroxysteroid dehydrogenase, rat 3α-hydroxysteroid dehydrogenase, and Thermoanaerobium brockii NADP^+ dependent alcohol dehydrogenase, in which cases 2 mM of NADPH was used), (4) 2 μL of a 3-5 mM solution of substrate in DMSO, and (5) 20 μL of a 40-50 μg/mL solution of enzyme. Reaction volumes were mixed thoroughly after addition of cofactor, substrate, and enzyme and allowed to react 12 hours at 25° C. Scanning of the 96-well plate was performed by the MicroMax 384 connected to a Jobin Yvon Fluorolog through F-3000 fiber optic cables.
(§5) Initial Screening with Fluorogenic Substrates: Screening of the first fluorogenic substrates for enzymatic activity has been described above. In short, 200 μL enzymatic assay volumes containing 100 mM potassium phosphate buffer (pH 7), 250 μM NAD(P)H cofactor, and 30-50 μM of ketones (1-7) were incubated for 12 hours on a black FALCON 96-well plate. Formation of the alcohol reduction product was determined by reading the fluorescence arising from excitation at the corresponding alcohol at either 340 nm (27-30) or 440 nm (31-33).

Data set [5] deals with T3, Pseudomonas testosteroni 3α-hydroxysteroid dehydrogenase (Comamonas testosteroni, UniProt P80702).
T3 construct: purchased Sigma (St. Louis, Mo.) Lot Number 053K8624 (catalogue number not given)
The data set is described as above. The class given is biochemical. The settings on record: 12 hour incubation, 30-50 μM substrate, pH 7, 250 μM NAD(P)H. On the procedure: as §1, §2, §3, §4, §5

The mark [6] stands for this setting: isozyme 1C3, potassium phosphate buffer pH 6, NADPH, fluorimetric.

T3 sequence (P80702 whole entry): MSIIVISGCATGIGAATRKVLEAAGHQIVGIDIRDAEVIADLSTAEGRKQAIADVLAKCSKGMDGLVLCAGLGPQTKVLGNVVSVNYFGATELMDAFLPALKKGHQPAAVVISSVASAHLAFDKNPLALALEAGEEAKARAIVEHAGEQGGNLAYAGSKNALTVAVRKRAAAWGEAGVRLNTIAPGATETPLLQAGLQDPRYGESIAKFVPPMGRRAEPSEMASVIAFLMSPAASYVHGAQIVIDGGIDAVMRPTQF

On to `O=C(c1ccccc1)c1cc(=O)oc2c3c4c(cc12)CCCN4CCC3` [5c, 8-Benzoyl-2,3,5,6-tetrahydro-1H,4H-11-oxa-3a-aza-benzo[de]anthracen-10-one], for which the Km (in general, the concentration of substrate that gives half-maximal velocity) in data set [1] (AKR1C3, value of the text) came out at 51 nM; in data set [1] (setting [6]) it was 50 nM. In data set [1] (setting [6]), this compound registered a Kcat of 5.93 min⁻¹. Besides, the “reduction in cytoplasmic (cytosolic) fraction” value in data set [2] (HepG2 cytosolic fraction, 1 mM NADPH, 80 μg protein/mL, one hour incubation) is “enzymatic reduction occurred”. The “stability / reduction in microsomal fraction” value in data set [2] (HepG2 microsomes, 1 mM NADPH, 80 μg protein/mL, one hour incubation) was “stable in the presence of microsomes”.

Take `COc1ccc2cc(-c3ccc(C(C)=O)cc3)c(=O)oc2c1` [VB11]: in data set [3], the solubility – broadly, the dissolved amount per volume that the medium holds – is more than 1000 µM.

For the compound `CC(=O)c1ccc(-c2cc3cc4c5c(c3oc2=O)CCCN5CCC4)cc1` [VB35], the solubility in data set [3] was more than 1000 µM.

For `CC(=O)c1ccc(-c2cc3cc4c5c(c3oc2=O)CCCN5CCC4)cc1` [compound 6, 9-(4-Acetyl-phenyl)-2,3,5,6-tetrahydro-1H,4H-11-oxa-3a-aza-benzo[de]anthracen-10-one], the “reduction of probe (fluorescence increase)” value in data set [4] and in data set [5] was “good conversion” each time.

Take `O=C(O)c1ccccc1Nc1cccc(C(F)(F)F)c1` [flufenamic acid, reference compound]: the “effect on reduction of 5c by the cytoplasmic extract” value in data set [2] (100 μM flufenamic acid, HepG2 cytoplasmic extract) is on record as “suppressed”.
